# Data reported in patent publication US20140243374A1, “Novel Sulfonamides” (The Brigham and Women's Hospital, Inc., priority 2011, published 2014).
# pIC50: −log10 of the molar value. “And” between values parts separate entries of the source, which are not always exact repeats. Identical values can stand only once.
# Columns and labels:
# [1] = target: T1, γ-secretase (cleavage of APP, Aβ42) (Homo sapiens, UniProt P49768); test: Aβ (1-42) cellular assay (Aβ ELISA, HEK AP-GL-T1 6 cells); assay type: cell-based; conditions: for inhibition at 1 µM: at 1 μM (concentration in brackets); for pIC50: cellular Aβ42 ELISA, 24 h compound treatment
# T1 construct: endogenous in cells; host or cells: HEK AP-GL-T16 luciferase reporter cells (tetracycline-induced APP substrate)
# Protocol: Aβ (1-42) Cellular Assay.
# The following assay was used to determine the extent to which the compounds of interest inhibit the cleavage of APP in vivo. AβELISA is a commercial fluorometric kit from Biosource (Invitrogen 89344). Luciferase reporter HEK AP-GL-T1 6 cells were plated at 50,000 cells/well in 96 well plates in DMEM media containing 10% tetracyclin free […], 250 μg/mL zeocin, 200 μg/mL hygromycin, and 5 μg/mL blasticidin. Compounds were added 24 h after plating and APP processing is induced simultaneously by addition of tetracycline. Following a 24 h compound treatment, […] of conditioned cell media is collected, mixed with ELISA diluent buffer containing 2 mM AEBSF and 12 mM o-phenanthroline, and immediately frozen at −80° C. For the ELISA, the samples were brought to room temperature and spun at 5000 rpm for 5 min. Samples ([…]) are incubated in the ELISA plate with […] detection antibody on a shaker at room temperature for 3 h. Wells were then washed 4 times with wash buffer and 100 mL of secondary antibody are added and incubated at room temperature for 30 min. Wells were again washed 4 times with wash buffer and 100 mL of fluorescent substrate solution are added. After 30 minutes of incubation, fluorescent signals are determine on a Gemini reader at ex 460 nm and em 560 nm. The amount of Aβ levels in each sample was determined from a standard curve generated by known concentrations of Aβ peptide run simultaneously with the samples.
# [2] = target: T2, γ-secretase (Notch cleavage activity) (Homo sapiens, UniProt P49768); test: Cleaved Notch1 Sandwich ELISA (SUP-T1 cell line); assay type: cell-based; conditions: for pIC50: SUP-T1 cells, 16 h; for Notch Elisa/Aβ42: ratio Notch Elisa IC50 to Aβ42 IC50
# T2 construct: endogenous in cells; host or cells: SUP-T1 cells
# Protocol: Cleaved Notch1 Sandwich ELISA.
# This assay was used to determine if the compounds of interest inhibit the Notch cleavage activity of γ-secretase in SUP-T1 cell line, which endogenously expresses a truncated Notch receptor fragment that is a viable gamma-secretase substrate. The base medium for this cell line is ATCC-formulated RPMI-1640 Medium with fetal bovine serum to a final concentration of 10%. Prepare dilution of SUP-T1 cells in complete growth medium to 1.0×10^6 cells/mL, seed 1.5 mL per well of each cell dilution into a 6-well plate. Collect cells treated with serial diluted compounds in DMSO after 16 h, then using equal amount of protein isolated from samples to measure Notch intracellular cleavage by PathScan® Sandwich ELISA Kit (Cell Signaling Tech 7194S).
# [3] = target: T3, γ-secretase (cleavage of Notch) (Homo sapiens, UniProt P49768); test: Notch cellular assay (luciferase reporter U2OS cells); assay type: cell-based; conditions: for pIC50: U2OS luciferase reporter cells; for Notch Luc/Aβ42: ratio Notch luciferase IC50 to Aβ42 IC50
# T3 construct: endogenous in cells; host or cells: U2OS luciferase reporter cells with Tet-on Notch
# Protocol: This assay was used to determine if the compounds of interest inhibit the cleavage of Notch by γ-secretase in cells. A U2OS cell line in which the luciferase expression is adjusted by active Notch was used in this assay Notch expression is adjusted using Tet-on promoter. Luciferase reporter U2OS cells are plated at 1000 cells/well in 96 well plates in DMEM containing 100 μg/mL hygromycin, 15 μg/mL blasticidin and 1 μg/mL Tetracycline. Compounds were added 24 h after plating and the cells are lysed 6 days after adding compounds. Luciferase expression was performed using Steady-Glo Luciferase Assay System (Promega).
Structure (SMILES),melting point,inhibition at 1 µM ([1]; read-out: Aβ42 % Inh),pIC50 [1],further results
"CC[C@H](C1CCCC1)N(Cc1ccc(C(=O)O)cc1)S(=O)(=O)c1ccc(Cl)cc1 [Example 23, (R)-4-((4-Chloro-N-(1-cyclopentylpropyl)phenylsulfonamido)methyl)benzoic acid]",67 to 69 °C,0%,–,–
"CC[C@H](C1CCCC1)N(Cc1ccc(C(=O)OC)cc1)S(=O)(=O)c1ccc(Cl)cc1 [Example 22, (R)-Methyl 4-((4-chloro-N-(1-cyclopentylpropyl)phenylsulfonamido)methyl)benzoate]",81 to 83 °C,0%,–,–
"O=C(O)c1ccc(CN(C2CCOCC2)S(=O)(=O)c2ccc(Cl)cc2)cc1 [Example 1, 4-((4-Chloro-N-(tetrahydro-2H-pyran-4-yl)phenylsulfonamido)methyl)benzoic acid]",218 to 219 °C,6%,–,–
"Cc1ccc(S(=O)(=O)N(Cc2ccc(C#N)cc2F)C2CCC2)cc1 [Example 27, N-(4-Cyano-2-fluorobenzyl)-N-cyclobutyl-4-methylbenzenesulfonamide]",146 to 147 °C,37%,–,–
"O=C(O)c1ccc(CN(C2CCCCC2O)S(=O)(=O)c2ccc(Cl)cc2)c(F)c1F (stereo not drawn) [Example 67, 4-((4-Chloro-N-(2-hydroxycyclohexyl)phenylsulfonamido)methyl)-2,3-difluorobenzoic acid]",134 to 136 °C,11%,–,–
"O=C(O)c1ccc(CN([C@H]2CCCC[C@@H]2O)S(=O)(=O)c2ccc(Cl)cc2)cc1 [Example 30, 4-((4-Chloro-N-((1S,2S)-2-hydroxycyclohexyl)phenylsulfonamido)methyl)benzoic acid]",218 to 219 °C,15%,–,–
"O=C(O)c1ccc(CN(C2CCCCC2Cl)S(=O)(=O)c2ccc(Cl)cc2)cc1 (stereo not drawn) [Example 81, 4-((4-Chloro-N-(2-chlorocyclohexyl)phenylsulfonamido)methyl)benzoic acid]",158 to 160 °C,–,–,"inhibition at 30 µM ([1]; at 30 μM (concentration in brackets), read-out: Aβ42 % Inh): 0%"
"O=C(O)c1ccc(CN(C2CCCCC2O)S(=O)(=O)c2ccc(Cl)cc2)cc1 (stereo not drawn) [Example 24, 4-((4-Chloro-N-(2-hydroxycyclohexyl)phenylsulfonamido)methyl)benzoic acid]",218 to 219 °C,51%,–,–
"CS(=O)(=O)c1ccc(CN(C2CCOCC2)S(=O)(=O)c2ccc(Cl)cc2)cc1 [Example 11, 4-Chloro-N-(4-(methylsulfonyl)benzyl)-N-(tetrahydro-2H-pyran-4-yl)benzene-sulfonamide]",158 to 160 °C,0%,–,–
"COc1ccc(CN(C2CCOCC2)S(=O)(=O)c2ccc(Cl)cc2)cc1C(=O)O [Example 8, 5-((4-Chloro-N-(tetrahydro-2H-pyran-4-yl)phenylsulfonamido)methyl)-2-methoxy-benzoic acid]",174 to 176 °C,0%,–,–
"O=S(=O)(c1ccc(Cl)cc1)N(Cc1ccc(OC2CCOCC2)nc1)C1CCOCC1 [Example 13, 4-Chloro-N-(tetrahydro-2H-pyran-4-yl)-N-((6-(tetrahydro-2H-pyran-4-yloxy)-pyridin-3-yl)methyl)benzenesulfonamide]",123 to 125 °C,0%,–,–
"COC(=O)c1cc(CN(CC2CCOCC2)S(=O)(=O)c2ccc(Cl)cc2)ccc1OC [Example 16, Methyl 5-((4-chloro-N-((tetrahydro-2H-pyran-4-yl)methyl)phenylsulfonamido)-methyl)-2-methoxybenzoate]",118 to 119 °C,0%,–,–
"CC1CCCCC1N(Cc1ccc(C(=O)NC(C)(C)C(=O)O)cc1)S(=O)(=O)c1ccc(C(F)(F)F)nc1 (stereo not drawn) [Example 33, 2-Methyl-2-(4-((N-(2-methylcyclohexyl)-6-(trifluoromethyl)pyridine-3-sulfonamido)methyl)benzamido)propanoicacid]",131 to 132 °C,56%,–,–
"COC(=O)c1ccc(CN([C@H]2CCCC[C@@H]2O)S(=O)(=O)c2ccc(Cl)cc2)cc1 [Example 31, Methyl 4-((4-chloro-N-((1S,2S)-2-hydroxycyclohexyl)phenylsulfonamido)methyl)benzoate]",150 to 152 °C,–,6.70,–
"O=C(O)c1ccc(CN(C2CCCCC2)S(=O)(=O)c2ccc(Cl)cc2)c(F)c1F [Example 71, 4-((4-Chloro-N-cyclohexylphenylsulfonamido)methyl)-2,3-difluorobenzoic acid]",111 to 112 °C,–,6.28,–
"O=C(O)c1ccc(CN(C2CCCCC2F)S(=O)(=O)c2ccc(Cl)cc2)cc1 (single isomer, unassigned) [Example 58, 4-((4-Chloro-N-(2-fluorocyclohexyl)phenylsulfonamido)methyl)benzoic acid]",–,–,6.47 and 6.16 and 6.68,pIC50 [2]: 5.00; Notch Elisa/Aβ42 ([2]; listed as 58/1231A): 25; pIC50 [3]: 3.59; Notch Luc/Aβ42 ([3]; listed as 58/1231A): 630
"Cc1ccc(S(=O)(=O)N(Cc2ccc(C#N)cc2F)C2CCCC2)cc1 [Example 29, N-(4-Cyano-2-fluorobenzyl)-N-cyclopentyl-4-methylbenzenesulfonamide]",178 to 179 °C,0%,–,–
"COC(=O)c1ccc(CN(CC2CCOCC2)S(=O)(=O)c2ccc(Cl)cc2)cc1 [Example 18, Methyl 4-((4-chloro-N-((tetrahydro-2H-pyran-4-yl)methyl)phenylsulfonamido)-methyl)benzoate]",115 to 117 °C,94%,–,–
"N#Cc1ccc(CN(C2CCCC2)S(=O)(=O)c2ccc(Cl)cc2)c(F)c1 [Example 28, 4-Chloro-N-(4-cyano-2-fluorobenzyl)-N-cyclopentylbenzenesulfonamide]",176 to 177 °C,–,6.52,–
"O=C(O)c1ccc(CN(CC2CCOCC2)S(=O)(=O)c2ccc(Cl)cc2)cc1 [Example 19, 4-((4-Chloro-N-((tetrahydro-2H-pyran-4-yl)methyl)phenylsulfonamido)methyl)-benzoic acid]",188 to 190 °C,13%,–,–
"COC(=O)c1ccc(CN(C2CCCCC2O)S(=O)(=O)c2ccc(Cl)cc2)cc1 (stereo not drawn) [Example 25, Methyl 4-((4-chloro-N-(2-hydroxycyclohexyl)phenylsulfonamido)methyl)benzoate]",162 to 164 °C,–,7.75,–
"CC1CCCC(N(Cc2ccc(C(=O)N[C@H](C)CO)cc2)S(=O)(=O)c2ccc(Cl)cc2)C1 (stereo partly drawn) [Example 50, 4-((4-Chloro-N-(3-methylcyclohexyl)phenylsulfonamido)methyl)-N—((R)-1-hydroxypropan-2-yl)benzamide]",–,–,8.14,pIC50 [2]: 5.67; Notch Elisa/Aβ42 [2]: 309; pIC50 [3]: 4.97; Notch Luc/Aβ42 [3]: 1456
"COC[C@@H](C)NC(=O)c1ccc(CN(C2CCCCC2C)S(=O)(=O)c2ccc(Cl)cc2)cc1 (stereo partly drawn) [Example 14, 4-((4-Chloro-N-(2-methylcyclohexyl)phenylsulfonamido)methyl)-N-((R)-1-methoxypropan-2-yl)benzamide]",–,–,9.15,pIC50 [2]: 6.15; Notch Elisa/Aβ42 [2]: 1014; pIC50 [3]: 6.52; Notch Luc/Aβ42 ([3]; listed as 14/1136): 433
"CC1CCCCC1N(Cc1ccc(C(=O)NC[C@H](C)O)cc1)S(=O)(=O)c1ccc(Cl)cc1 (stereo partly drawn) [Example 47, 4-((4-Chloro-N-(2-methylcyclohexyl)phenylsulfonamido)methyl)-N—((S)-2-hydroxypropyl)benzamide]",–,–,9.06,pIC50 [2]: 6.46; Notch Elisa/Aβ42 [2]: 401; pIC50 [3]: 6.16; Notch Luc/Aβ42 [3]: 791
